Data from article PMC8510812, “Studies on the Incompatibility between Bulbus fritillariae and Radix aconiti praeparata Based on the P-gp” (Evidence-based Complementary and Alternative Medicine : eCAM, 2021).
Where two headings read alike, the source gives them in different places.

Columns and labels:
ileum = assay: Rat SPIP, Peff of monoester alkaloids in Radix aconiti praeparata extract with or without Bulbus fritillariae; assay type: in vivo; conditions: n = 6, Figure 3
Procedure: (§1) Rats were anaesthetized by an intraperitoneal injection of urethane and then placed on a heated pad. The small intestine was exposed by surgery. 10 cm of the ileum segment was ligated and cannulated with glass tubing for perfusion. Caroline et al. reported that the level of P-gp expression in rat ileum was the highest. In order to better reflect the characteristics of P-gp, we selected the ileum segment. The cannulated segment was rinsed with saline (37°C), and attached to the perfusion assembly consisted of a syringe pump and a 50 ml syringe. The selected ileum was placed as “U” shape and covered with the gauze wet by saline. The perfusate was collected every 10 min at a flow rate of 0.2 ml/min for 90 min. The perfused intestine segment was removed and opened along the mesentery to measure the area. Samples were frozen immediately and stored at -20°C until analysis. Digoxin, an exclusive substrate of P-gp, was chosen as the FDA guidelines.
The concentrations of drugs in SPIP experiment were determined by HPLC. A MS-C18 column (5 μm, 4.6 mm × 150 mm, Agilent, USA) with an analytical TC-C18 guard column (5 μm, 4.6 mm × 12.5 mm, Agilent, USA) was maintained at 30°C. The analytical mobile phase about digoxin consisted of water and acetonitrile in a 75 : 25 (v/v) ratio. Benzoylaconine, benzoylmesaconine, and benzoylhypacoitine consisted of 0.05% acetic acid and methanol in a gradient from 85 : 15 to 55 : 45 (v/v) ratio. The flow rate was 1 mL/min. The injection volume was 10 µL. Digoxin was detected by absorbance at 220 nm and benzoylaconine, benzoylmesaconine, and benzoylhypacoitine at 235 nm.
P eff was calculated by the following equation:(1) Peff=−QinlnCoutQout/CinQin/2πrL. Here, Qin and Qout were the flow rate at inlet and outlet, respectively. Cin and Cout were the concentration at inlet and outlet, respectively. 2πrL was the mass transfer surface area within the intestinal segment, which was assumed to be the area of the cylinder with the radius (r) and length (L).

P-gp [1] = assay type: in vivo, rat; conditions: in the presence of verapamil, n = 6, Figure 10
Procedure: as §1
The concentrations of drugs in SPIP experiment were determined by HPLC. A MS-C18 column (5 μm, 4.6 mm × 150 mm, Agilent, USA) with an analytical TC-C18 guard column (5 μm, 4.6 mm × 12.5 mm, Agilent, USA) was maintained at 30°C. […] Digoxin was detected by absorbance at 220 nm and benzoylaconine, benzoylmesaconine, and benzoylhypacoitine at 235 nm.
P eff was calculated by the following equation:(1) Peff=−QinlnCoutQout/CinQin/2πrL. […]

P-gp [2] = molecular target: T1, P-gp (Homo sapiens, UniProt P08183); assay type: cell-based; conditions: MDR1-MDCK cells, n = 3
T1 construct: host or cells: MDR1-MDCK cells
T1 sequence (P08183 whole entry): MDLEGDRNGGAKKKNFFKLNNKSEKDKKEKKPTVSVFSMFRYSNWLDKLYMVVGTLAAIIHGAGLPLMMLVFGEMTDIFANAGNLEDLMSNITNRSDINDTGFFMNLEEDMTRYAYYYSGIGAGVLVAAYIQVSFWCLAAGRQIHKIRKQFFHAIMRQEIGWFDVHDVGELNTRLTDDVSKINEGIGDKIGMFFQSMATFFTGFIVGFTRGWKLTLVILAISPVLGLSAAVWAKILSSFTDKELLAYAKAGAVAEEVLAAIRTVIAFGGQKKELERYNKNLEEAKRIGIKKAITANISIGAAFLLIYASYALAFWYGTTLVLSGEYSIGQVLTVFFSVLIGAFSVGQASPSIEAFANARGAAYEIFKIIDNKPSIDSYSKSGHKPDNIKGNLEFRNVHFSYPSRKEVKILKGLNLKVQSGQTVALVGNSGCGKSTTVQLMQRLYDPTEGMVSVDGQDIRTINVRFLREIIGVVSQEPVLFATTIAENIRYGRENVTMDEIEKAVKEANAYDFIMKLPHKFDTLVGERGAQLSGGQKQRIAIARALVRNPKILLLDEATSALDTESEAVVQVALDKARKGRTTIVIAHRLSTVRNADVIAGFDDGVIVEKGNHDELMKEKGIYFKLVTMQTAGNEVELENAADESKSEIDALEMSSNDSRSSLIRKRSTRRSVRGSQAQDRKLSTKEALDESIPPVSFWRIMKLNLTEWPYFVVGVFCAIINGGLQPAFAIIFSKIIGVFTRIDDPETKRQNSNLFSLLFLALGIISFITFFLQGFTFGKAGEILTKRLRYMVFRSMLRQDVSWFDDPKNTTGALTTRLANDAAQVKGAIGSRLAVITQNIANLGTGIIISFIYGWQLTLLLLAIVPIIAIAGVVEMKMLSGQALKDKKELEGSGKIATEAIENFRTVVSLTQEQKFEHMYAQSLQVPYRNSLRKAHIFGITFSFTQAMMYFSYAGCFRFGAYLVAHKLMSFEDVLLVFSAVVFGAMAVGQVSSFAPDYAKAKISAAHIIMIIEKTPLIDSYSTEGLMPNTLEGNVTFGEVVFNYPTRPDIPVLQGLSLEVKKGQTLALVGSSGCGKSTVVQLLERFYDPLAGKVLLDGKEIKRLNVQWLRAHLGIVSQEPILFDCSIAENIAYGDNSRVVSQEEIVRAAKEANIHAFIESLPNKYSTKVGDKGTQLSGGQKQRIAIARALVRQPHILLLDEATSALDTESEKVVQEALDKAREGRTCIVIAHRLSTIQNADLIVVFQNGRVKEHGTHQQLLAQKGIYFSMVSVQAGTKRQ
Procedure: MDR1-MDCK cells, obtained from the College of Pharmaceutical Sciences in Zhejiang University (China), were cultured in DMEM containing 10% FBS, 100 µg/mL-100 U/mL penicillin-streptomycin, and 1% NEAA at 37°C in an atmosphere of 5% CO2 and 95% relative humidity. Cells were passaged at 80%–90% conﬂuence. P-gp inhibitors were screened by MDR1-MDCK cell transport study using the calcein-AM kit. Briefly, the cells were seeded in a 96-well black opaque plate and cultured for 48 h. Then, the cells were washed twice with PBS. 100 µL drug and 50 µL culture medium was added and preincubated at 37°C for 10 min. 50 µL 1 µM calcein-AM was added and incubated at 37°C for 1 h. Cold PBS was used to terminate the reaction. 100 µL 0.1% Triton-100 was added for cell permeability.
RFR was calculated by (4) RFR=RFU TS/RFU CS×100%. Here, RFU TS was the RFU of the test sample and RFU CS was the RFU of the control sample.

SMILES | Peff of monoester alkaloid in Radix aconiti praeparata extract versus Radix aconiti praeparata + Bulbus fritillariae cirrhosae extract (ileum) | Peff of monoester alkaloid in Radix aconiti praeparata extract versus Radix aconiti praeparata + Bulbus fritillariae thunbergii extract (ileum) | Peff of monoester alkaloid in Radix aconiti praeparata extract versus that supplemented with verapamil (P-gp [1]) | RFR of calcein versus control group (P-gp [2]; high-dose group) | RFR of calcein versus control group (P-gp [2]; low-dose group)
CCN1C[C@]2(COC)[C@H](O)C[C@H](OC)[C@@]34[C@@H]5C[C@@]6(O)[C@H](OC(=O)c7ccccc7)[C@@H]5[C@@](O)([C@@H]([C@H](OC)[C@H]23)[C@@H]14)[C@@H](O)[C@@H]6OC [Benzoylaconine] | No significant differences | No significant differences | No significant differences | – | –
COC[C@@]12CC[C@H](OC)[C@]34C([C@H]([C@H](OC)[C@H]13)[C@]1(O)[C@H]3[C@@H](OC(=O)c5ccccc5)[C@](O)(C[C@H]34)[C@@H](OC)[C@@H]1O)N(C)C2 [Benzoylhypacoitine] | No significant differences | No significant differences | No significant differences | – | –
COC[C@]12CN(C)C3[C@@H]4[C@H](OC)[C@H]1[C@@]3([C@@H](OC)C[C@H]2O)[C@@H]1C[C@@]2(O)[C@H](OC(=O)c3ccccc3)[C@@H]1[C@]4(O)[C@@H](O)[C@@H]2OC [Benzoylmesaconine] | significant differences | – | – | – | –
C[C@H]1CC[C@@H]2N(C1)C[C@H]1[C@@H]3C[C@H]4[C@@H](C[C@H](O)[C@H]5C[C@@H](O)CC[C@@]54C)[C@@H]3CC[C@@H]1[C@]2(C)O [Peimine] | – | – | – | highly significant differences | no significant differences
C[C@H]1CCC2N(C1)C[C@H]1C3CC4[C@@H](CC(=O)C5C[C@@H](O)CC[C@@]54C)C3CCC1[C@]2(C)O (stereo partly shown) [Peiminine] | – | – | – | no significant differences | no significant differences
CC1=C2C[C@H]3[C@@H](CC(=O)[C@H]4C[C@@H](O)CC[C@@]43C)[C@@H]2CC[C@]12O[C@@H]1C[C@H](C)CN[C@H]1[C@H]2C [Peimisine] | – | – | – | highly significant differences | highly significant differences
